{"source": "patent US7601863B2", "about": "“Use of PPAR agonists for the treatment of congestive heart failure” (sanofi-aventis Deutschland GmbH, priority 2004, dated 2009)", "key": {"[1]": {"test_system": "rat model of chronic coronary artery ligation (myocardial infarction, congestive heart failure)", "experiment": "Proof of concept study: chronic heart failure after permanent left coronary artery occlusion; lung weight and isolated working heart after eight weeks of treatment", "format": "in vivo, Male Wistar rats", "settings": "for Lung weight / Cardiac output / LV dP/dtmax / LV dP/dtmin: MI, eight weeks, mean ± sem; for Cardiac output / LV dP/dtmax / LV dP/dtmin: working heart, afterload 80 mmHg", "from_the_text": "In order to test the effect of specific activation of either PPARγ (rosiglitazone) or PPARα (compound of formula (I), (II) and (III)) on the improvement of CHF, a rat model of chronic coronary artery ligation was used because myocardial infarction is the most common cause for CHF in the industrialized countries.\nMale Wistar rats were housed three per cage under standardized conditions of temperature, humidity, and light. They had free access to a standardized diet (sodium content 0.2%, Altromin, Lage, Germany) and tap drinking water. Chronic heart failure was induced by a permanent occlusion of the left coronary artery approximately 2 mm distal to its origin from the aorta resulting in a large infarction of the free left ventricular wall. Chronic treatment was initiated on the day after production of the myocardial infarction and continued for eight weeks.\nThe left atrium was cannulated by an incision of the left auricle. After a 15-minute equilibration period at a fixed perfusion pressure of 60 mmHg, the heart was switched into the working mode at a fixed filling pressure of 11 mm Hg. Then, afterload pressure was varied stepwise every two minutes from 40 to 140 mmHg. […] Flow and pressure signals were sampled at 500 Hz, averaged every 2 seconds. Cardiac output measures the overall capacity of the heart to pump the blood through the body. LV dP/dtmax is an index of myocardial contractility, i.e. the force generating ability of the heart; LV dP/dtmin is an index of the ability of the myocardium to relax. In addition, lung weight was measured as an index of pulmonary congestion, an indirect sign of CHF.\nTreatment with a compound of the formula (I) (pressed in chow, resulting in a dose of 20 mg/kg/d) was initiated on the day after myocardial infarction. The pure PPARγ agonist rosiglitazone was used for comparison in an additional group (3 mg/kg/day in chow)."}, "[2]": {"test_system": "rats with chronic ligation of the left coronary artery (myocardial infarction, heart failure)", "experiment": "Dose response in chronic myocardial infarction: lung weight and isolated working heart after 8 weeks of treatment", "format": "in vivo, Male Sprague Dawley rats", "settings": "for Lung weight / Cardiac output / LV dP/dtmax / LV dP/dtmin: MI, 8 weeks, mean ± sem; for Cardiac output / LV dP/dtmax / LV dP/dtmin: working heart, afterload 80 mmHg", "method": "At the end of the treatment period, cardiac function was measured using an isolated working heart preparation (modified Langendorff apparatus, cf. Linz et al., J. Ren. Angiotensin Aldosterone Syst., 2003): The hearts were perfused according to Langendorff's method with an oxygenated (95% O2, 5% CO2) noncirculating Krebs-Henseleit solution of the following compositions (mmol/L): NaCl, 118; KCl, 4.7; CaCl2, 2.5; MgSO4, 1.6; NaHCO3, 24.9; KH2PO4, 1.2; glucose, 5.5; Na-pyruvate, 2.0. The left atrium was cannulated by an incision of the left auricle. After a 15-minute equilibration period at a fixed perfusion pressure of 60 mmHg, the heart was switched into the working mode at a fixed filling pressure of 11 mm Hg. Then, afterload pressure was varied stepwise every two minutes from 40 to 140 mmHg. Data in the table are representative and given for a constant afterload pressure of 80 mmHg. Flow and pressure signals were sampled at 500 Hz, averaged every 2 seconds. Cardiac output measures the overall capacity of the heart to pump the blood through the body. LV dP/dtmax is an index of myocardial contractility, i.e. the force generating ability of the heart; LV dP/dtmin is an index of the ability of the myocardium to relax. In addition, lung weight was measured as an index of pulmonary congestion, an indirect sign of CHF.\nMale Sprague Dawley rats were pre-treated with a chronic ligation of the left coronary artery, in order to produce a myocardial infarction (MI) and subsequent development of heart failure: Treatment with a compound of the formula (I) (pressed in chow, resulting in different daily doses) was initiated on the day after myocardial infarction. After 8 weeks of treatment, the animals were killed, the lung was weighed, and the function of the isolated heart was analyzed ex vivo in the working heart mode, in the same manner as described for Example 1 (vide supra). This method allows to assess different aspects of the myocardial function. For comparison against the effect of an established therapeutic principle in the present experimental series, the dual ACE/NEP, or vasopeptidase, inhibitor (7-(2-Acetylsulfanyl-3-methyl-butyrylamino)-6-oxo-1,2,3,4,6,7,8,12b-octahydro-benzo[c]pyrido[1,2-a]azepine-4-carboxylic acid; international patent application no. WO 02/083671) that is known for being active in the treatment of CHF was applied in an additional group."}, "[3]": {"settings": "rosiglitazone 3 mg/kg/d in chow"}, "[4]": {"settings": "compound (I) 20 mg/kg/d in chow"}}, "data": [{"smiles": "CN(CCOc1ccc(CC2SC(=O)NC2=O)cc1)c1ccccn1", "note": "(centres unmarked) [Rosiglitazone, rosiglitazone, reference compound]", "values": [{"measurement": "Lung weight", "setting": "[1]; [3]", "result": "3.67 ± 0.38", "unit": "Gram"}, {"measurement": "Cardiac output", "setting": "[1]; [3]", "result": "10.2 ± 3.8", "unit": "mL/min"}, {"measurement": "LV dP/dtmax", "setting": "[1]; [3]", "result": "3491 ± 147", "unit": "mmHg/s"}, {"measurement": "LV dP/dtmin", "setting": "[1]; [3]", "result": "2081 ± 65", "unit": "mmHg/s"}]}, {"smiles": "CC(=O)SC(C(=O)NC1Cc2ccccc2C2CCCC(C(=O)O)N2C1=O)C(C)C", "note": "(centres unmarked) [VPI, 7-(2-Acetylsulfanyl-3-methyl-butyrylamino)-6-oxo-1,2,3,4,6,7,8,12b-octahydro-benzo[c]pyrido[1,2-a]azepine-4-carboxylic acid, reference compound]", "values": [{"measurement": "Lung weight", "setting": "[2]; 30 mg/kg/d", "result": "0.56 ± 0.07", "unit": "g/100 g BW"}, {"measurement": "Cardiac output", "setting": "[2]; 30 mg/kg/d", "result": "27.2 ± 3.5", "unit": "mL/min"}, {"measurement": "LV dP/dtmax", "setting": "[2]; 30 mg/kg/d", "result": "3868 ± 172", "unit": "Mm Hg/s"}, {"measurement": "LV dP/dtmin", "setting": "[2]; 30 mg/kg/d", "result": "2379 ± 120", "unit": "mm Hg/s"}]}, {"smiles": "Cc1cccc(COCCCOCc2coc(-c3ccccc3)n2)c1C(=O)O", "note": "[compound (I), 2-methyl-6-[3-(2-phenyloxazol-4-ylmethoxy)propoxymethyl] benzoic acid]", "values": [{"measurement": "Effect of chronic treatment on heart failure (in words)", "setting": "[2]; MI rats, 8 weeks in chow, different daily doses", "result": "improves different aspects of heart failure"}, {"measurement": "Lung weight", "setting": "[2]; 1 mg/kg/d in chow", "result": "0.80 ± 0.08", "unit": "g/100 g BW"}, {"measurement": "Cardiac output", "setting": "[2]; 1 mg/kg/d in chow", "result": "12.5 ± 3.3", "unit": "mL/min"}, {"measurement": "LV dP/dtmax", "setting": "[2]; 1 mg/kg/d in chow", "result": "3280 ± 250", "unit": "Mm Hg/s"}, {"measurement": "LV dP/dtmin", "setting": "[2]; 1 mg/kg/d in chow", "result": "1886 ± 137", "unit": "mm Hg/s"}, {"measurement": "Lung weight", "setting": "[2]; 3 mg/kg/d in chow", "result": "0.54 ± 0.08", "unit": "g/100 g BW"}, {"measurement": "Cardiac output", "setting": "[2]; 3 mg/kg/d in chow", "result": "21.5 ± 5.4", "unit": "mL/min"}, {"measurement": "LV dP/dtmax", "setting": "[2]; 3 mg/kg/d in chow", "result": "3665 ± 166", "unit": "Mm Hg/s"}, {"measurement": "LV dP/dtmin", "setting": "[2]; 3 mg/kg/d in chow", "result": "2353 ± 77", "unit": "mm Hg/s"}, {"measurement": "Lung weight", "setting": "[2]; 10 mg/kg/d in chow", "result": "0.54 ± 0.09", "unit": "g/100 g BW"}, {"measurement": "Cardiac output", "setting": "[2]; 10 mg/kg/d in chow", "result": "21.0 ± 4.0", "unit": "mL/min"}, {"measurement": "LV dP/dtmax", "setting": "[2]; 10 mg/kg/d in chow", "result": "4043 ± 256", "unit": "Mm Hg/s"}, {"measurement": "LV dP/dtmin", "setting": "[2]; 10 mg/kg/d in chow", "result": "2339 ± 111", "unit": "mm Hg/s"}, {"measurement": "Effect of chronic treatment on heart failure (in words)", "setting": "[1]; MI rats, eight weeks in chow, compound (I) 20 mg/kg/d, rosiglitazone 3 mg/kg/day", "result": "improves different aspects of heart failure"}, {"measurement": "Lung weight", "setting": "[1]; [4]", "result": "1.62 ± 0.06", "unit": "Gram"}, {"measurement": "Cardiac output", "setting": "[1]; [4]", "result": "25.8 ± 4.3", "unit": "mL/min"}, {"measurement": "LV dP/dtmax", "setting": "[1]; [4]", "result": "4614 ± 253", "unit": "mmHg/s"}, {"measurement": "LV dP/dtmin", "setting": "[1]; [4]", "result": "2502 ± 77", "unit": "mmHg/s"}]}]}
